Measured values as given in PubChem BioAssay AID256 (DTP/NCI, 2004).
“And” between values parts separate entries of the source, which are not always exact repeats. Equal entries are not always repeated. Toxic doses and inconclusive results are not listed.

Test system: CD2F1 mice, L1210 leukemia ip, survival T/C
Experiment: NCI In Vivo Anticancer Drug Screen. Data for tumor model L1210 Leukemia (intraperitoneal) in CD2F1 (CDF1) mice
Conditions: endpoint: mean survival time, higher = longer survival
Summary of the method: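 Each value reflects a quotient of treated over vehicle control outcomes in mice with a transplanted tumor.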

[1] = dose: 100.0 mg/kg/injection, schedule: Q01DX001 (ip), vehicle: saline
[2] = dose: 100.0 mg/kg/injection, schedule: Q04DX003 (ip), vehicle: saline with Tween-80
[3] = dose: 200.0 mg/kg/injection, schedule: Q04DX003 (ip), vehicle: saline with Tween-80
[4] = dose: 100.0 mg/kg/injection, schedule: Q01DX009 (ip), vehicle: saline with Tween-80
[5] = dose: 200.0 mg/kg/injection, schedule: Q01DX009 (ip), vehicle: saline with Tween-80
[6] = dose: 400.0 mg/kg/injection, schedule: Q01DX009 (ip), vehicle: saline with Tween-80
[7] = dose: 400.0 mg/kg/injection, schedule: Q04DX003 (ip), vehicle: saline with Tween-80
[8] = dose: 100.0 mg/kg/injection, schedule: Q04DX003 (ip), vehicle: saline
[9] = dose: 200.0 mg/kg/injection, schedule: Q04DX003 (ip), vehicle: saline
[10] = dose: 50.0 mg/kg/injection, schedule: Q01DX009 (ip), vehicle: saline with Tween-80

Compound: CS(=O)(=O)OCCCCOS(C)(=O)=O
- T/C (dose: 3.75 mg/kg/injection, schedule: Q01DX009 (ip), vehicle: saline with Tween-80): 92 % of control
- T/C (dose: 3.75 mg/kg/injection, schedule: Q03HX008 (ip), vehicle: saline with Tween-80): 96 % of control
- T/C (dose: 3.75 mg/kg/injection, schedule: Q03HX016 (ip), vehicle: saline with Tween-80): 94 % of control
- T/C (dose: 3.75 mg/kg/injection, schedule: Q03HX024 (ip), vehicle: saline with Tween-80): 104 % of control
- T/C (dose: 7.5 mg/kg/injection, schedule: Q01DX009 (ip), vehicle: saline with Tween-80): 102 % of control
- T/C (dose: 7.5 mg/kg/injection, schedule: Q03HX008 (ip), vehicle: saline with Tween-80): 100 % of control
- T/C (dose: 7.5 mg/kg/injection, schedule: Q03HX016 (ip), vehicle: saline with Tween-80): 98 % of control
- T/C (dose: 7.5 mg/kg/injection, schedule: Q03HX024 (ip), vehicle: saline with Tween-80): 106 % of control
- T/C (dose: 12.5 mg/kg/injection, schedule: Q01DX001 (ip), vehicle: saline): 98 % of control
- T/C (dose: 15.0 mg/kg/injection, schedule: Q01DX009 (ip), vehicle: saline with Tween-80): 97 % of control
- T/C (dose: 15.0 mg/kg/injection, schedule: Q01DX009 (oral), vehicle: saline with Tween-80): 97 % of control
- T/C (dose: 15.0 mg/kg/injection, schedule: Q03HX008 (ip), vehicle: saline with Tween-80): 102 % of control
- T/C (dose: 15.0 mg/kg/injection, schedule: Q03HX016 (ip), vehicle: saline with Tween-80): 98 % of control
- T/C (dose: 15.0 mg/kg/injection, schedule: Q03HX024 (ip), vehicle: saline with Tween-80): 103 % of control
- T/C (dose: 25.0 mg/kg/injection, schedule: Q01DX001 (ip), vehicle: saline): 102 % of control
- T/C (dose: 30.0 mg/kg/injection, schedule: Q01DX001 (ip), vehicle: saline with Tween-80): 98 % of control
- T/C (dose: 30.0 mg/kg/injection, schedule: Q01DX009 (ip), vehicle: saline with Tween-80): 100 % of control
- T/C (dose: 30.0 mg/kg/injection, schedule: Q01DX009 (oral), vehicle: saline with Tween-80): 94 % of control
- T/C (dose: 30.0 mg/kg/injection, schedule: Q03HX008 (ip), vehicle: saline with Tween-80): 107 % of control
- T/C (dose: 30.0 mg/kg/injection, schedule: Q03HX016 (ip), vehicle: saline with Tween-80): 98 % of control
- T/C (dose: 30.0 mg/kg/injection, schedule: Q03HX024 (ip), vehicle: saline with Tween-80): 107 % of control
- T/C (dose: 30.0 mg/kg/injection, schedule: Q04DX003 (ip), vehicle: saline with Tween-80): 101 % of control
- T/C (dose: 30.0 mg/kg/injection, schedule: Q08DX002 (ip), vehicle: saline with Tween-80): 98 % of control
- T/C (dose: 50.0 mg/kg/injection, schedule: Q01DX001 (ip), vehicle: saline): 101 % of control
- T/C (dose: 60.0 mg/kg/injection, schedule: Q01DX001 (ip), vehicle: saline with Tween-80): 104 % of control
- T/C (dose: 60.0 mg/kg/injection, schedule: Q01DX001 (oral), vehicle: saline with Tween-80): 100 % of control
- T/C (dose: 60.0 mg/kg/injection, schedule: Q04DX003 (ip), vehicle: saline with Tween-80): 96 % of control
- T/C (dose: 60.0 mg/kg/injection, schedule: Q08DX002 (ip), vehicle: saline with Tween-80): 98 % of control
- T/C [1]: 112 % of control
- T/C (dose: 120.0 mg/kg/injection, schedule: Q01DX001 (ip), vehicle: saline with Tween-80): 104 % of control
- T/C (dose: 120.0 mg/kg/injection, schedule: Q08DX002 (ip), vehicle: saline with Tween-80): 97 % of control
- T/C (dose: 240.0 mg/kg/injection, schedule: Q08DX002 (ip), vehicle: saline with Tween-80): 100 % of control

Compound: CC([NH-])C([NH-])O.[Br][Pt+2][Br] (stereo unspecified)
- T/C (dose: 25.0 mg/kg/injection, schedule: Q04DX003 (ip), vehicle: saline with Tween-80): 169 % of control

Compound: O=C(CC([Se]c1ccccc1)c1ccccc1)c1ccccc1 (stereo unspecified)
- T/C (dose: 50.0 mg/kg/injection, schedule: Q01DX009 (ip), vehicle: saline sonified): 102 % of control
- T/C (dose: 100.0 mg/kg/injection, schedule: Q01DX009 (ip), vehicle: saline sonified): 102 % of control
- T/C [2]: 105 % of control
- T/C (dose: 200.0 mg/kg/injection, schedule: Q01DX009 (ip), vehicle: saline sonified): 105 % of control
- T/C [3]: 104 % of control

Compound: CC(=O)OC1CCC2(C)C(CC=C3C2CCC2(C)C3CCC2C(C)CCCC(C)C)C1 (stereo unspecified)
- T/C [4]: 89 % of control
- T/C [5]: 89 % of control
- T/C [6]: 91 % of control

Compound: C(=C\c1nccc2c1[nH]c1ccccc12)/c1ccccc1
- T/C [2]: 105 % of control
- T/C [3]: 100 % of control
- T/C [7]: 105 % of control

Compound: COc1cc2c(c(OC)c1OC)-c1cc(I)c(O)cc1[C@@H](NC(C)=O)CC2
- T/C [4]: 98 % of control

Compound: Clc1nc2ccccc2[nH]1
- T/C [8]: 98 % of control
- T/C [9]: 100 % of control
- T/C (dose: 400.0 mg/kg/injection, schedule: Q04DX003 (ip), vehicle: saline): 90 % of control

Compound: O=[N+]([O-])O.[La]
- T/C [10]: 90 % of control
- T/C [4]: 97 % of control
- T/C [2]: 92 % of control
- T/C [8]: 97 % of control
- T/C [5]: 92 % of control
- T/C [3]: 93 % of control
- T/C [9]: 98 % of control

Compound: COc1nn(O)cc(C)c1=N
- T/C (dose: 6.25 mg/kg/injection, schedule: Q04DX002 (ip), vehicle: saline with Tween-80): 93 % of control
- T/C (dose: 12.5 mg/kg/injection, schedule: Q04DX002 (ip), vehicle: saline with Tween-80): 101 % of control
- T/C (dose: 25.0 mg/kg/injection, schedule: Q04DX002 (ip), vehicle: saline with Tween-80): 101 % of control

Compound: CC(=O)c1c(C(=O)O)c(=O)oc2cc(O)ccc12
- T/C (dose: 75.0 mg/kg/injection, schedule: Q01DX001 (ip), vehicle: saline): 98 % of control
- T/C (dose: 150.0 mg/kg/injection, schedule: Q01DX001 (ip), vehicle: saline): 98 % of control
- T/C (dose: 300.0 mg/kg/injection, schedule: Q01DX001 (ip), vehicle: saline): 98 % of control

Compound: CCCCN(CCCC)C(=S)Nc1ccccc1
- T/C [10]: 96 % of control
- T/C (dose: 100.0 mg/kg/injection, schedule: Q01DX001 (ip), vehicle: saline with Tween-80): 107 % of control
- T/C [4]: 96 % of control
- T/C (dose: 200.0 mg/kg/injection, schedule: Q01DX001 (ip), vehicle: saline with Tween-80): 102 % of control
- T/C [5]: 86 % of control
- T/C (dose: 400.0 mg/kg/injection, schedule: Q01DX001 (ip), vehicle: saline with Tween-80): 96 % of control

Compound: COc1ccc(CCNCCc2ccc(OC)c(OC)c2)cc1OC
- T/C (dose: 12.5 mg/kg/injection, schedule: Q01DX009 (ip), vehicle: water): 95 % of control
- T/C (dose: 25.0 mg/kg/injection, schedule: Q01DX009 (ip), vehicle: water): 100 % of control
- T/C (dose: 50.0 mg/kg/injection, schedule: Q01DX009 (ip), vehicle: water): 102 % of control
- T/C (dose: 100.0 mg/kg/injection, schedule: Q01DX009 (ip), vehicle: water): 104 % of control

Compound: CN(CC#CCOc1ccc(Br)cc1)c1ccccc1
- T/C [4]: 103 % of control
- T/C [5]: 100 % of control
- T/C [6]: 97 % of control

Compound: CC(=O)N(C)c1ccc(C)cc1C
- T/C [4]: 93 % of control
- T/C [5]: 96 % of control
- T/C [6]: 98 % of control

Compound: O=C(Nc1ccc(Cl)c(Cl)c1)c1cc(Cl)ccc1O
- T/C [4]: 102 % of control
- T/C [5]: 100 % of control
- T/C [6]: 105 % of control

Compound: Cc1ccccc1C1(O)CCCCC1
- T/C (dose: 25.0 mg/kg/injection, schedule: Q01DX009 (ip), vehicle: saline with Tween-80): 114 % of control
- T/C [10]: 98 % of control and 108 % of control
- T/C [4]: 90 % of control
- T/C [2]: 93 % of control
- T/C [5]: 90 % of control
- T/C [3]: 94 % of control

Compound: COC(=O)CC(=O)C12OC1CC1C3CC=C4CC(OC(C)=O)CCC4(C)C3CCC12C (stereo unspecified)
- T/C (dose: 75.0 mg/kg/injection, schedule: Q04DX003 (sc), vehicle: steriod suspending solution): 101 % of control
- T/C (dose: 150.0 mg/kg/injection, schedule: Q04DX003 (sc), vehicle: steriod suspending solution): 103 % of control
- T/C (dose: 300.0 mg/kg/injection, schedule: Q04DX003 (sc), vehicle: steriod suspending solution): 97 % of control

Compound: COC(=O)NC(S(=O)(=O)O)S(=O)(=O)O
- T/C [1]: 108 % of control
- T/C (dose: 200.0 mg/kg/injection, schedule: Q01DX001 (ip), vehicle: saline): 101 % of control
- T/C (dose: 400.0 mg/kg/injection, schedule: Q01DX001 (ip), vehicle: saline): 108 % of control

Compound: O=C([O-])CC(=O)[O-].[NH-][C@@H]1CCCC[C@H]1[NH-].[Pt+4]
- T/C (dose: 6.25 mg/kg/injection, schedule: Q04DX003 (ip), vehicle: saline with Tween-80): 113 % of control

Compound: CCCSCC(C)C
- T/C [2]: 102 % of control
- T/C [3]: 93 % of control
- T/C [7]: 108 % of control
